Counter-ions that a name gives are not always drawn.
System: cancer cell lines
Experiment: Growth inhibitory effects on the panel of cancer cell lines
Type: cell-based
Conditions: drug 10 μM, 72 hours, WST-1

For `CNCC(O)c1ccc(O)c(O)c1` (racemic) [DL-Adrenaline], the “inhibition effect on different cancer cell lines (in words)” value was “significant inhibition effect”.

In the case of `C[N+](C)(C)CC(O)CC(=O)O.[Cl-]` (racemic) [DL-Carnitine hydrochloride], the “inhibition effect on different cancer cell lines (in words)” value is reported as “significant inhibition effect”.

`CC(C)NC[C@@H](O)COc1ccc(CC(N)=O)cc1` [(R)-(+)-Atenolol] was tested, and the “inhibition effect on different cancer cell lines (in words)” value was “significant inhibition effect”.

For `Nc1ncnc2c1ncn2[C@@H]1O[C@H](CO)[C@@H](O)[C@H]1O` [Adenosine (Adenocard), Adenosine], the “inhibition effect on different cancer cell lines (in words)” value was “significant inhibition effect”.

In the case of `CNCC(=O)c1ccc(O)c(O)c1` [Adrenalone HCl], the “inhibition effect on different cancer cell lines (in words)” value is reported as “significant inhibition effect”.

With `COc1cc2nc(N(C)CCCNC(=O)C3CCCO3)nc(N)c2cc1OC` (stereo not drawn) [Alfuzosin hydrochloride (Uroxatral), Alfuzosin hydrochloride] the “inhibition effect on different cancer cell lines (in words)” value was “significant inhibition effect”.

`NC12CC3CC(CC(C3)C1)C2` [Amantadine hydrochloride (Symmetrel), Amantadine hydrochloride] was tested, and the “inhibition effect on different cancer cell lines (in words)” value was “significant inhibition effect”.

For `N=C(N)NC(=O)c1nc(Cl)c(N)nc1N` [Amiloride hydrochloride dihydrate], the “inhibition effect on different cancer cell lines (in words)” value was “significant inhibition effect”.

In the case of `CCCCc1oc2ccccc2c1C(=O)c1cc(I)c(OCCN(CC)CC)c(I)c1` [Amiodarone HCl], the “inhibition effect on different cancer cell lines (in words)” value is reported as “significant inhibition effect”.

With `CCOC(=O)OC(C)OC1=C(C(=O)Nc2ccccn2)N(C)S(=O)(=O)c2ccccc21` (stereo not drawn) [Ampiroxicam] the “inhibition effect on different cancer cell lines (in words)” value was “significant inhibition effect”.

In the case of `COc1ccc(C2C(=O)c3ccccc3C2=O)cc1` [Anisindione], the “inhibition effect on different cancer cell lines (in words)” value is reported as “significant inhibition effect”.

For `COc1ccc(-n2nc(C(N)=O)c3c2C(=O)N(c2ccc(N4CCCCC4=O)cc2)CC3)cc1` [Apixaban], the “inhibition effect on different cancer cell lines (in words)” value was “significant inhibition effect”.

For `CC1CNc2c(cccc2S(=O)(=O)N[C@@H](CCCNC(=N)N)C(=O)N2CC[C@@H](C)C[C@@H]2C(=O)O)C1` (stereo partly drawn) [Argatroban], the “inhibition effect on different cancer cell lines (in words)” value was “significant inhibition effect”.

`CCOc1nc2cccc(C(=O)OCc3oc(=O)oc3C)c2n1Cc1ccc(-c2ccccc2-c2noc(=O)[nH]2)cc1` [Azilsartan Medoxomil (TAK-491), Azilsartan Medoxomil] was tested, and the “inhibition effect on different cancer cell lines (in words)” value was “significant inhibition effect”.

In the case of `NS(=O)(=O)c1cc2c(cc1C(F)(F)F)NC(Cc1ccccc1)NS2(=O)=O` (stereo not drawn) [Bendroflumethiazide], the “inhibition effect on different cancer cell lines (in words)” value is reported as “significant inhibition effect”.

For `NS(=O)(=O)c1cc2c(cc1Cl)N=C(CSCc1ccccc1)NS2(=O)=O` [Benzthiazide], the “inhibition effect on different cancer cell lines (in words)” value was “significant inhibition effect”.

In the case of `N[C@@H]1CCCCN(c2c(F)cc3c(=O)c(C(=O)O)cn(C4CC4)c3c2Cl)C1` [Besifloxacin HCl (Besivance), Besifloxacin HCl], the “inhibition effect on different cancer cell lines (in words)” value is reported as “significant inhibition effect”.

For `CC(C)NCC(O)COc1ccc(CCOCC2CC2)cc1` (stereo not drawn) [Betaxolol hydrochloride (Betoptic), Betaxolol hydrochloride], the “inhibition effect on different cancer cell lines (in words)” value was “significant inhibition effect”.

In the case of `C=C(c1ccc(C(=O)O)cc1)c1cc2c(cc1C)C(C)(C)CCC2(C)C` [Bexarotene], the “inhibition effect on different cancer cell lines (in words)” value is reported as “significant inhibition effect”.

For `CCNC(=O)CCC/C=C\C[C@@H]1[C@@H](/C=C/[C@@H](O)CCc2ccccc2)[C@H](O)C[C@@H]1O` [Bimatoprost], the “inhibition effect on different cancer cell lines (in words)” value was “significant inhibition effect”.

For `CN(Cc1cc(Br)cc(Br)c1N)C1CCCCC1` [Bromhexine HCl], the “inhibition effect on different cancer cell lines (in words)” value was “significant inhibition effect”.

`CS(=O)(=O)OCCCCOS(C)(=O)=O` [Busulfan (Myleran, Busulfex), Busulfan] was tested, and the “inhibition effect on different cancer cell lines (in words)” value was “significant inhibition effect”.

`CCOc1nc2cccc(C(=O)OC(C)OC(=O)OC3CCCCC3)c2n1Cc1ccc(-c2ccccc2-c2nnn[nH]2)cc1` (stereo not drawn) [Candesartan cilexetil (Atacand), Candesartan cilexetil] was tested, and the “inhibition effect on different cancer cell lines (in words)” value was “significant inhibition effect”.

`CC(C)C[C@H](NC(=O)[C@H](CCc1ccccc1)NC(=O)CN1CCOCC1)C(=O)N[C@@H](Cc1ccccc1)C(=O)N[C@@H](CC(C)C)C(=O)[C@@]1(C)CO1` [Carfilzomib (PR-171), Carfilzomib] was tested, and the “inhibition effect on different cancer cell lines (in words)” value was “significant inhibition effect”.

`COc1ccccc1OCCNCC(O)COc1cccc2[nH]c3ccccc3c12` (stereo not drawn) [Carvedilol] was tested, and the “inhibition effect on different cancer cell lines (in words)” value was “significant inhibition effect”.

`NS(=O)(=O)c1cc2c(cc1Cl)N=CNS2(=O)=O` [Chlorothiazide] was tested, and the “inhibition effect on different cancer cell lines (in words)” value was “significant inhibition effect”.

With `CCOC(=O)[C@H](CCc1ccccc1)N[C@H]1CCCN2CCC[C@@H](C(=O)O)N2C1=O` [Cilazapril monohydrate (Inhibace), Cilazapril monohydrate] the “inhibition effect on different cancer cell lines (in words)” value was “significant inhibition effect”.

`O=C1CCc2cc(OCCCCc3nnnn3C3CCCCC3)ccc2N1` [Cilostazol] was tested, and the “inhibition effect on different cancer cell lines (in words)” value was “significant inhibition effect”.

With `CCCC(=O)OCOC(=O)C1=C(C)NC(C)=C(C(=O)OC)C1c1cccc(Cl)c1Cl` (stereo not drawn) [Cleviprex (Clevidipine), Clevidipine] the “inhibition effect on different cancer cell lines (in words)” value was “significant inhibition effect”.

With `COC(=O)[C@H](c1ccccc1Cl)N1CCc2sccc2C1` [Clopidogrel (Plavix), Clopidogrel] the “inhibition effect on different cancer cell lines (in words)” value was “significant inhibition effect”.

In the case of `CC(C)NCC(O)c1ccccc1Cl` (stereo not drawn) [Clorprenaline HCL], the “inhibition effect on different cancer cell lines (in words)” value is reported as “significant inhibition effect”.

`Cc1onc(-c2ccccc2Cl)c1C(=O)N[C@@H]1C(=O)N2[C@@H]1SC(C)(C)[C@@H]2C(=O)O` [Cloxacillin sodium (Cloxacap), Cloxacillin sodium] was tested, and the “inhibition effect on different cancer cell lines (in words)” value was “significant inhibition effect”.

In the case of `Cc1nc2c([nH]1)-c1ccccc1N(C(=O)c1ccc(NC(=O)c3ccccc3-c3ccccc3)cc1)CC2` [Conivaptan HCl (Vaprisol), Conivaptan HCl], the “inhibition effect on different cancer cell lines (in words)” value is reported as “significant inhibition effect”.

`Nc1ccn([C@@H]2O[C@H](CO)[C@@H](O)[C@H]2O)c(=O)n1` [Cytidine] was tested, and the “inhibition effect on different cancer cell lines (in words)” value was “significant inhibition effect”.

With `OC[C@@H](O)[C@@H](O)[C@H](O)[C@H](O)CO` [D-Mannitol (Osmitrol), D-Mannitol] the “inhibition effect on different cancer cell lines (in words)” value was “significant inhibition effect”.

For `O=c1c(-c2ccc(O)cc2)coc2cc(O)ccc12` [Daidzein], the “inhibition effect on different cancer cell lines (in words)” value was “significant inhibition effect”.

For `Cc1c(O)c(=O)ccn1C` [Deferiprone], the “inhibition effect on different cancer cell lines (in words)” value was “significant inhibition effect”.

In the case of `Oc1ccc(OC2CCCCO2)cc1` (stereo not drawn) [Deoxyarbutin], the “inhibition effect on different cancer cell lines (in words)” value is reported as “significant inhibition effect”.

For `C[C@@H](CN1CC(=O)NC(=O)C1)N1CC(=O)NC(=O)C1` [Dexrazoxane Hydrochloride], the “inhibition effect on different cancer cell lines (in words)” value was “significant inhibition effect”.

`NS(=O)(=O)c1cc(Cl)c(Cl)c(S(N)(=O)=O)c1` [Dichlorphenamide (Diclofenamide), Dichlorphenamide] was tested, and the “inhibition effect on different cancer cell lines (in words)” value was “significant inhibition effect”.

With `COc1ccc([C@@H]2Sc3ccccc3N(CCN(C)C)C(=O)[C@@H]2OC(C)=O)cc1` [Diltiazem HCl (Tiazac), Diltiazem HCl] the “inhibition effect on different cancer cell lines (in words)” value was “significant inhibition effect”.

`CN(CCOc1ccc(NS(C)(=O)=O)cc1)CCc1ccc(NS(C)(=O)=O)cc1` [Dofetilide (Tikosyn), Dofetilide] was tested, and the “inhibition effect on different cancer cell lines (in words)” value was “significant inhibition effect”.

With `COc1cc2nc(N3CCN(C(=O)C4COc5ccccc5O4)CC3)nc(N)c2cc1OC` (stereo not drawn) [Doxazosin mesylate] the “inhibition effect on different cancer cell lines (in words)” value was “significant inhibition effect”.

`CC1=NN(c2ccccc2)C(=O)C1` [Edaravone (MCI-186), Edaravone] was tested, and the “inhibition effect on different cancer cell lines (in words)” value was “significant inhibition effect”.

With `CCOC(=O)[C@H](CCc1ccccc1)N[C@@H](C)C(=O)N1CCC[C@H]1C(=O)O` [Enalapril maleate (Vasotec), Enalapril maleate] the “inhibition effect on different cancer cell lines (in words)” value was “significant inhibition effect”.

For `C[C@H](N[C@@H](CCc1ccccc1)C(=O)O)C(=O)N1CCC[C@H]1C(=O)O.O.O` [Enalaprilat dehydrate], the “inhibition effect on different cancer cell lines (in words)” value was “significant inhibition effect”.

In the case of `COC(=O)[C@@H]1CC2=CC(=O)CC[C@]2(C)[C@@]23O[C@@H]2C[C@@]2(C)[C@@H](CC[C@@]24CCC(=O)O4)[C@H]13` [Eplerenone], the “inhibition effect on different cancer cell lines (in words)” value is reported as “significant inhibition effect”.

In the case of `CCCCc1ncc(/C=C(\Cc2cccs2)C(=O)O)n1Cc1ccc(C(=O)O)cc1` [Eprosartan Mesylate], the “inhibition effect on different cancer cell lines (in words)” value is reported as “significant inhibition effect”.

`COC(=O)CCc1ccc(OCC(O)CNC(C)C)cc1` (stereo not drawn) [Esmolol HCl] was tested, and the “inhibition effect on different cancer cell lines (in words)” value was “significant inhibition effect”.

`O=S(=O)(O)c1cc(O)ccc1O` [Ethamsylate] was tested, and the “inhibition effect on different cancer cell lines (in words)” value was “significant inhibition effect”.

In the case of `O=C1[C@H](CC[C@H](O)c2ccc(F)cc2)[C@@H](c2ccc(O)cc2)N1c1ccc(F)cc1` [Ezetimibe (Zetia), Ezetimibe], the “inhibition effect on different cancer cell lines (in words)” value is reported as “significant inhibition effect”.

For `NC(N)=Nc1nc(CSCCC(N)=NS(N)(=O)=O)cs1` [Famotidine (Pepcid), Famotidine], the “inhibition effect on different cancer cell lines (in words)” value was “significant inhibition effect”.

`CNC[C@H](O)[C@@H](O)[C@H](O)[C@H](O)CO.CNC[C@H](O)[C@@H](O)[C@H](O)[C@H](O)CO.C[C@@H](O[C@H]1OCCN(Cc2nn(P(=O)(O)O)c(=O)[nH]2)[C@H]1c1ccc(F)cc1)c1cc(C(F)(F)F)cc(C(F)(F)F)c1` [Fosaprepitant dimeglumine] was tested, and the “inhibition effect on different cancer cell lines (in words)” value was “significant inhibition effect”.

In the case of `Cc1ccc(C)c(OCCCC(C)(C)C(=O)O)c1` [Gemfibrozil (Lopid), Gemfibrozil], the “inhibition effect on different cancer cell lines (in words)” value is reported as “significant inhibition effect”.

Source: patent US20170304388A1, “NEW INDICATION OF CARDIOVASCULAR DRUGS FOR PREPARATION OF CANCER INHIBITION PHARMACEUTICAL COMPOSITION” (LAUNX BIOMEDICAL CO., LTD., priority 2014, published 2017)
